Measured values taken from paper PMC9389588, “1,6-epi-Cyclophellitol Cyclosulfamidate Is a Bona Fide Lysosomal α-Glucosidase Stabilizer for the Treatment of Pompe Disease” (Journal of the American Chemical Society, 2022).

Target: T1, sucrase-isomaltase (SI) (Mus musculus, UniProt B5THE3)
T1 construct: cABPP in mouse intestine homogenates; from tissue; host or cells: duodenum of wild type mice
Experiment: competitive ABPP in mouse intestine homogenates, SI
Format: biochemical
Details: mouse duodenum extracts; 0-100 μM; 30 min 37 °C
Procedure: Inhibition of gastrointestinal α-glucosidases with antidiabetic drugs has been related to undesired effects, including flatulence, diarrhea, and abdominal pain. Cyclosulfamidate 4 inhibits SI and MGAM but does so about a 100-fold less potently than it inhibits rhGAA or GANAB, and we conclude that it has a more beneficial therapeutic window in this regard compared to NB-DNJ 2.
Figure 2 Competitive ABPP (cABPP) in mouse intestine homogenates. […]
After preincubation, 25 μL of E+I mixture was added to a 96 wells plate and 100 μL substrate solution in the appropriate buffer was subsequently added. GAA activity was measured using final concentrations of 47 nM enzyme (Myozyme) and 3.0 mM 4-MU-α-D-glucopyranoside, for 30 minutes at 37 ℃. GANAB activity was measured using wt fibroblasts and 2.4 mM 4-MU-α-D-glucopyranoside, for 2 h at 37 ℃. GBA1 activity was measured using final concentrations of 0.7 nM enzyme (Cerezyme) and 3.0 mM 4-methylumbeliferone(4-MU)-β-D-glucopyranoside, for 30 min at 37 ℃. GBA2 residual activity was measured using cellular homogenates of HEK293T over-expressing GBA2 pre-incubated for 30 min with a GBA1 inhibitor (1 µM 37 (ME656), see Figure S1 for chemical structure), and further incubation with 3.0 mM 4-methylumbeliferone(4MU)-β-D-glucopyranoside […]

T1 sequence (B5THE3 1-1818): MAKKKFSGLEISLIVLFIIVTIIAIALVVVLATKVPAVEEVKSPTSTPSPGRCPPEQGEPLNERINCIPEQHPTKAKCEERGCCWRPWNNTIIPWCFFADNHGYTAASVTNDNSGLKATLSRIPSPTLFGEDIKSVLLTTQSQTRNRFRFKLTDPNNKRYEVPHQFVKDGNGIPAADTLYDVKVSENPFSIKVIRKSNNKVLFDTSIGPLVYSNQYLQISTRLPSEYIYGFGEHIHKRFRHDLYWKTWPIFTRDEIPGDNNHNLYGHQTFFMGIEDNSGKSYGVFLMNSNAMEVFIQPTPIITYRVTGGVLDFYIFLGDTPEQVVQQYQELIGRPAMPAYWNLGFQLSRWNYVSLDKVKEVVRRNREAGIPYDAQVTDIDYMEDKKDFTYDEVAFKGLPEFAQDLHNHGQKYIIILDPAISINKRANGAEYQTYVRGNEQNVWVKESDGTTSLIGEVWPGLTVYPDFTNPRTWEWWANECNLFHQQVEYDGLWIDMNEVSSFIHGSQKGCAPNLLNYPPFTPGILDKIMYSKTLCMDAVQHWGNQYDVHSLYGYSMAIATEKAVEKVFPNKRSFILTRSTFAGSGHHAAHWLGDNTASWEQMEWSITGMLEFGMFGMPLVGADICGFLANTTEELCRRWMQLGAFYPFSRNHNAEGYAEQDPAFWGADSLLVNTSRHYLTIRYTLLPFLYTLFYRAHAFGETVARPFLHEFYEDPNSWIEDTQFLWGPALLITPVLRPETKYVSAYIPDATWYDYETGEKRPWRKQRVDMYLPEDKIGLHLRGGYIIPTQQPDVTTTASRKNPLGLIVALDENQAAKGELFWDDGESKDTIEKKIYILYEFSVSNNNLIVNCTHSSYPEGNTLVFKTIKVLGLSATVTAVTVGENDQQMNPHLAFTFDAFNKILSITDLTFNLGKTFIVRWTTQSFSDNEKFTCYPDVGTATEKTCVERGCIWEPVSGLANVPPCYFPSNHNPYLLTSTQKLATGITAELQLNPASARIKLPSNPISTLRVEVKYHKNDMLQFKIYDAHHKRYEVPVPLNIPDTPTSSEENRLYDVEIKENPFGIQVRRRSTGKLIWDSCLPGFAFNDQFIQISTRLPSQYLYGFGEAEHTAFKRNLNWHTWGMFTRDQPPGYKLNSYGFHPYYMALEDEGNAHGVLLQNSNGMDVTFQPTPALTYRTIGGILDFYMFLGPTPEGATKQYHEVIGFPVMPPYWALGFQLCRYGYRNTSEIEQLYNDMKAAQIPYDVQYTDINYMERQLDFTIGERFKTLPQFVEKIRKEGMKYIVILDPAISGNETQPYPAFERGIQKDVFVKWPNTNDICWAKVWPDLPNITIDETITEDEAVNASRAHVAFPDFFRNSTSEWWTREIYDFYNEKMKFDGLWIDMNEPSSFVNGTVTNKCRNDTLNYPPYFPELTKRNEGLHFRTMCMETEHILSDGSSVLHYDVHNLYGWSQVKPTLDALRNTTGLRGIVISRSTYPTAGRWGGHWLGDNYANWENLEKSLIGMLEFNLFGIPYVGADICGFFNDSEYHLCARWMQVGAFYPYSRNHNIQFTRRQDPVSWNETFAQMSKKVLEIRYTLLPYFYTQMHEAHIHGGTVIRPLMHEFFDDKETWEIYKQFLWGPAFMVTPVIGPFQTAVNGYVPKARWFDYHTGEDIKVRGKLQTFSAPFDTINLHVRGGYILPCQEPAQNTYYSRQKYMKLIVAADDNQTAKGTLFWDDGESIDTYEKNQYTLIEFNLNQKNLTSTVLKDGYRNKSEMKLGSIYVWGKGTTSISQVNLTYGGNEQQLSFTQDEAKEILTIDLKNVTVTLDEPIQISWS

## O=S1(=O)N[C@@H]2[C@H](O)[C@@H](O)[C@H](O)[C@@H](CO)[C@@H]2O1 [compound 4, 1,6-epi-cyclophellitol cyclosulfamidate]
  inhibition of SI by cABPP, in words: inhibit
